What was measured:
[1] = molecular target: BACE1 enzyme (Homo sapiens (Human), UniProt P56817); assay: BACE1 Cell-Free Assay (fluorescence polarization, cleavage of synthetic APP substrate); format: biochemical; conditions: geometric mean of 2-3 determinations; Examples 32-34 (footnote b) single determination
Text: Beta-secretase (BACE) is one of the enzymes involved in the generation of the amyloid beta peptide found in the amyloid plaques of Alzheimer's Disease patients. This assay measures the inhibition of the beta-secretase enzyme as it cleaves a non-native peptide.
A synthetic APP substrate that can be cleaved by beta-secretase having N-terminal biotin and made fluorescent by the covalent attachment of Oregon Green at the Cys residue is used to assay beta-secretase activity in the presence or absence of the inhibitory compounds. The substrate is Biotin-GLTNIKTEEISEISY^EVEFR-C[Oregon Green]KK-OH. The BACE1 enzyme is affinity purified material from conditioned media of CHO-K1 cells that have been transfected with a soluble BACE construct (BACE1deltaTM96His). Compounds are incubated in a log dose response curve from a top concentration of 100 μM with BACE1 enzyme and the biotinylated fluorescent peptide in 384-well black plates (Thermo Scientific #4318). BACE1 is at a final concentration of 0.1 nM with a final concentration of peptide substrate of 150 nM in a reaction volume of 30 μL assay buffer [100 mM sodium acetate, pH 4.5 (brought to pH with acetic acid), and 0.001% Tween-20]. Plates are covered and incubated for 3 hours at 37° C. The reaction is stopped with the addition of 30 μL of 1.5 μM Streptavidin (Pierce, #21125). After a 10 minute incubation at room temperature, plates are read on a PerkinElmer EnVision for fluorescence polarization (Ex485 nm/Em530 nm). The activity of the beta-secretase enzyme is detected by changes in the fluorescence polarization that occur when the substrate is cleaved by the enzyme.

[2] = tested on: sAPPβ levels in H4 human neuroglioma cells over-expressing the wild-type human APP695; assay: Whole Cell Assay (In Vitro sAPPβ Assay), TMB-ELISA; format: cell-based; conditions: 18 hours, geometric mean of 2-3 determinations, Examples 32-34 (footnote b) single determination
Description: Whole Cell Assay (In Vitro sAPPpβ Assay):
H4 human neuroglioma cells over-expressing the wild-type human APP695 are treated for 18 hours with compound in a final concentration 1% DMSO. sAPPβ levels are measured using TMB-ELISA with capture APP N-terminal antibody (Affinity BioReagents, OMA1-03132), wild-type sAPPβ specific reporter p192 (Elan), and tertiary anti rabbit-HRP (GE Healthcare).

BACE1 enzyme, sequence (P56817 46-457): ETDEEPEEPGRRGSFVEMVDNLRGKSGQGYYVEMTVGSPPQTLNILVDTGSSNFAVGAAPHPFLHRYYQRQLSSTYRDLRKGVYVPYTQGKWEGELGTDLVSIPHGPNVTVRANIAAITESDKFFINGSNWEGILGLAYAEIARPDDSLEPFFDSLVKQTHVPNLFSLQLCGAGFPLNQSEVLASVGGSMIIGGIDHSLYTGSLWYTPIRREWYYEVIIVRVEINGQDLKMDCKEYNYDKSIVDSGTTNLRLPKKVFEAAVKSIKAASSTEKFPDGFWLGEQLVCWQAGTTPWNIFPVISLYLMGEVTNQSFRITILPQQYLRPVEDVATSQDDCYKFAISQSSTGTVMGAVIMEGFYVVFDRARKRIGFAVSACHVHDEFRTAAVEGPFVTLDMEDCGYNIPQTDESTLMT

SMILES	IC50 [1]	IC50 [2]
NC1=N[C@@]2(c3ccc(F)cc3F)CO[C@@H](c3cccc(C(F)(F)F)c3)C[C@H]2CS1 [Example 13, (4aR,6R,8aS)-8a-(2,4-difluorophenyl)-6-[3-(trifluoromethyl)phenyl]-4,4a,5,6,8,8a-hexahydropyrano[3,4-d][1,3]thiazin-2-amine]	97 nM	0.222 nM
NC1=N[C@@]2(c3ccc(F)cc3F)CO[C@@H](c3ccc4c(c3)OCO4)C[C@H]2CS1 [Example 27, (4aR,6R,8aS)-6-(1,3-benzodioxol-5-yl)-8a-(2,4-difluorophenyl)-4,4a, 5,6,8,8a-hexahydropyrano[3,4-d][1,3]thiazin-2-amine]	19 nM	0.008 nM
Cc1ccc(F)c([C@H]2C[C@H]3CSC(N)=N[C@@]3(c3ccc(F)cc3F)CO2)c1 [Example 11, (4aR,6R,8aS)-8a-(2,4-difluorophenyl)-6-(2-fluoro-5-methylphenyl)-4,4a,5,6,8,8a-hexahydropyrano[3,4-d][1,3]thiazin-2-amine]	21 nM	0.017 nM
Cc1cc([C@H]2C[C@H]3CSC(N)=N[C@@]3(c3ccc(F)cc3F)CO2)ccc1F [Example 8, (4aR,6R,8aS)-8a-(2,4-difluorophenyl)-6-(4-fluoro-3-methylphenyl)-4,4a,5,6,8,8a-hexahydropyrano[3,4-d][1,3]thiazin-2-amine]	6 nM	0.008 nM
NC1=N[C@@]2(c3ccc(F)cc3F)CO[C@@H](c3ccc(F)c(F)c3)C[C@H]2CS1 [Example 5, (4aR,6R,8aS)-8a-(2,4-difluorophenyl)-6-(3,4-difluorophenyl)-4,4a,5,6,8,8a-hexahydropyrano[3,4-d][1,3]thiazin-2-amine]	10 nM	0.007 nM
NC1=N[C@@]2(c3ccc(F)cc3F)CO[C@@H](c3ccc(F)cc3F)C[C@H]2CS1 [Example 4, (4aR,6R,8aS)-6,8a-bis(2,4-difluorophenyl)-4,4a,5,6,8,8a-hexahydropyrano[3,4-d][1,3]thiazin-2-amine]	39 nM	0.025 nM
COCc1ccc([C@H]2C[C@H]3CSC(N)=N[C@@]3(c3ccc(F)cc3F)CO2)cc1 [Example 25, (4aR,6R,8aS)-8a-(2,4-difluorophenyl)-6-[4-(methoxymethyl)phenyl]-4,4a,5,6,8,8a-hexahydropyrano[3,4-d][1,3]thiazin-2-amine]	22 nM	0.01 nM
